Assay results as given in US9266954B2, “Methods for modulating D1-D2 dopamine receptor coupling and function” (Centre for Addiction and Mental Health, priority 2008, dated 2016).
Ends that are not written are not given here.

Key:
[1] = target: T1, HEK-293T cells co-expressing D1 and D2 receptors (Homo sapiens, UniProt P14416+P21728); test: Fluo-4AM fluorescence measurement of intracellular Ca^2+ in HEK-293T cells co-expressing D1 and D2 receptors; assay type: cell-based; conditions: pretreatment 10 μM
T1 construct: expressed in transfected cells; host or cells: HEK-293T
Text: Fluorescence values were monitored using a PerkinElmer multiwell plated fluorometer, collected at 3-s intervals for 150 s. (A.F.U.: arbitrary fluorescence units).
To investigate the functional implication of the D1-D2 coupling, we examined the ability of this complex to promote Gq/11 signaling as indexed by changes in intracellular Ca^2+ levels^83-85.

D1 receptors = target: T2, D1 receptors (Rattus norvegicus, UniProt P18901); test: GST-fusion protein affinity pull-down of D1 receptor from solubilized rat striatum; assay type: binding; conditions: FIG. 1C-1E
T2 construct: D1 receptor was specifically pulled down by GST-D2IL3-L in detergent extracts of rat striatum; from tissue; host or cells: rat striatum, detergent-solubilized
Text: (§1) To confirm previous reports of a D1-D2 receptor complex we used rat striata in co-immunoprecipitation (co-IP) experiments. […] In an attempt to define the structural basis for the observed D1-D2 coupling, we carried out affinity purification using GST (glutathione-S-transferase)-fusion proteins encoding the D1CT and the third intracellular loop (D1IL3), since both D1CT: A332-T446 and D1IL3: R219-K272 contain putative consensus sequences for receptor phosphorylation, desensitization and potential binding sites for various proteins important for signalling (e.g. G proteins, NMDA receptor NR1, NR2A subunits)^81-82. […] To locate the interacting site on D2R, GST-fusion proteins encoding IL3 from both the D2 short (D2S) and D2 Long (D2L) (GST-D2IL3-L: K211-Q373, GST-D2IL3-S:K211-[…]) were used in affinity purification assays. […] Since the D2L and D2S are differentiated by the additional 29 amino-acid within the third intracellular loop, the fact that only D2L but not D2S interacts with D1R made us suspect that this specific 29 amino-acid may contain the D1-D2 interacting site.

D1 tail = target: T3, D1 tail (Homo sapiens, UniProt P21728); test: in vitro binding assay with S^35-D1 tail probe; conditions: FIG. 1F
T3 construct: D1CT A332-T446
T3 sequence (P21728 332-446): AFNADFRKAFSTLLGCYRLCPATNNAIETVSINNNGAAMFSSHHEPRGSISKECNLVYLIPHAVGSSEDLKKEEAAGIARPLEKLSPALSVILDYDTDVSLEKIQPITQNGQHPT
Text: as §1

D2R = test: Western blot of D2R levels in striata of chronically treated rats; assay type: in vivo; conditions: rat striata; 10 mg/kg/day subcutaneously for 14 days
D1R = test: Western blot of D1R levels in striata of chronically treated rats; assay type: in vivo; conditions: rat striata; 10 mg/kg/day subcutaneously for 14 days
D1-D2 coupling = conditions: rat, in vivo, sc, 10 mg/kg/day
D1-D2 interaction = target: T4, D1-D2 interaction (Rattus norvegicus, UniProt P18901); test: competitive co-immunoprecipitation of D1 receptor with D2 receptor in rat striatum; assay type: binding; conditions: preincubation, FIG. 1G
T4 construct: from tissue; host or cells: rat striatum
Text: The ability of D1 receptor to co-immunoprecipitate with D2 receptor is inhibited by the addition of GST-D2IL3-29-2 in a concentration dependent manner;
as §1

D2 receptors = conditions: rat, in vivo

T2 sequence (P18901 whole entry, the tested form may be a part): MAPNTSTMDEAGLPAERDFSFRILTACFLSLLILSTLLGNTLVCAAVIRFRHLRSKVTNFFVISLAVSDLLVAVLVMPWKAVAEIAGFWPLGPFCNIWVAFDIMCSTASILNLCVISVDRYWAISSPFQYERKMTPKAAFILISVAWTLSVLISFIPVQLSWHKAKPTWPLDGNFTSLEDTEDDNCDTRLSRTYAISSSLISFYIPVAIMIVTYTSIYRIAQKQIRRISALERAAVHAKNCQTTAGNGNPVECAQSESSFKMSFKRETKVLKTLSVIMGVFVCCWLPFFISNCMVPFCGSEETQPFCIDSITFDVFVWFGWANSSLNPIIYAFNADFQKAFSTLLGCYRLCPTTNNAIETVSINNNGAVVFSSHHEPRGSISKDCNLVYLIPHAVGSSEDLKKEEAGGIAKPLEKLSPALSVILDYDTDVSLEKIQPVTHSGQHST
T1 sequence (P21728 whole entry): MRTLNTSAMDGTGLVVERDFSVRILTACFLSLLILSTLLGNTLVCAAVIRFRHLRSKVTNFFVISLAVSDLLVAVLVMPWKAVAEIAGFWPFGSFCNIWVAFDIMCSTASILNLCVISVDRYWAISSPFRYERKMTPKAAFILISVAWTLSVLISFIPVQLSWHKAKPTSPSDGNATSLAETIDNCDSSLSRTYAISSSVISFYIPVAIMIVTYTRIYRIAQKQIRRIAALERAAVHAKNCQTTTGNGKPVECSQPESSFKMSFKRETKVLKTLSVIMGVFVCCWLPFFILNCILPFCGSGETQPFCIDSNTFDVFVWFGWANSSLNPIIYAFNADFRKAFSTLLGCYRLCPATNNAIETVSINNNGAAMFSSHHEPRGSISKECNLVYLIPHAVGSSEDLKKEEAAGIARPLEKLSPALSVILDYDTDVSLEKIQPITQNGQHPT
T1 sequence (P14416 whole entry): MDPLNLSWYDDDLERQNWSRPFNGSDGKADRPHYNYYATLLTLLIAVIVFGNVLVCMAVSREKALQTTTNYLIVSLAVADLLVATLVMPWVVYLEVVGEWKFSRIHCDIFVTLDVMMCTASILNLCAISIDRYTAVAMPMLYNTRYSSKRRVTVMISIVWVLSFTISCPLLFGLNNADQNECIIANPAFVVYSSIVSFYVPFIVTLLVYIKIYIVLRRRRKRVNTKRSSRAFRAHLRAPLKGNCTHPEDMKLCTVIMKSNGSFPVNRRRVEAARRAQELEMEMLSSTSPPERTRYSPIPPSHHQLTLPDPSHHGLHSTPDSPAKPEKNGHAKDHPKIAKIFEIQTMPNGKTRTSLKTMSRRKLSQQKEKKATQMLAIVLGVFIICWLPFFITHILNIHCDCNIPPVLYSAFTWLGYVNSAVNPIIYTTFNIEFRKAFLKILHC
T4 sequence (P18901 whole entry): as the sequence (P18901 whole entry, the tested form may be a part) above

Row | Molecule | block of the Ca^2+ increase induced by co-activation with 10 μM SKF81297 and 10 μM quinpirole [1] | pull-down of D1 receptors (D1 receptors) | binding of S^35-D1 tail probe (D1 tail) | further results
1 | COc1ccc2c(c1)CC[C@@H]1[C@@H]2CC[C@]2(C)[C@@H](NCCCCCCN3C(=O)C=CC3=O)CC[C@@H]12 [U73122] | inhibited the increase in Ca^2+ levels | – | – | –
2 | CCN1CCC[C@H]1CNC(=O)c1c(O)c(Cl)cc(Cl)c1OC [raclopride] | blocked | – | – | –
3 | GST-D2LIL3-29-1: GST-fusion protein encoding D2LIL3-29-1: G242-V255 (GNCTHPEDMKLCTV; cysteine pairing not given here; also: GST fusion protein) | – | not | not | –
4 | CN(C)CCCN1c2ccccc2CCc2ccccc21 [imipramine] | – | – | – | D2R levels (Western blot) vs control rats (D2R): no significant change; D1R levels (Western blot) vs control rats (D1R): no significant change; D1-D2 coupling (co-immunoprecipitation) (D1-D2 coupling): decrease in D1-D2 coupling
5 | GST-D2LIL3-29-2: GST-fusion protein encoding D2LIL3-29-2: I256-V270 (IMKSNGSFPVNRRRV; also: GST fusion protein) | – | can successfully pull-down D1R | specifically bound | inhibition of D1-D2 interaction as indexed by co-immunoprecipitation (D1-D2 interaction): inhibits the D1-D2 interaction as indexed by the co-immunoprecipitation in a concentration dependent manner
6 | O=C(CCCN1CCC(O)(c2ccc(Cl)cc2)CC1)c1ccc(F)cc1 [haloperidol] | – | – | – | direct immunoprecipitated D2 receptors (D2 receptors): remain unchanged
